Laboratory results as given in article PMC12332667, “Role of Structural Modifications in Peptidomimetic Compounds as Potential Antimicrobial Agents against Staphylococcus aureus and Streptococcus pyogenes: Balancing Bioavailability, Safety, and Antimicrobial Activity” (ACS Omega, 2025).
Converted amounts (≈) assume the structure as drawn.

Key:
S. agalactiae ATCC 27956 = assay: MIC/MBC broth microdilution, S. agalactiae; assay type: cell-based, Streptococcus agalactiae; conditions: S. agalactiae
Description: (§1) S. aureus (ATCC 29213),S. pyogenes (ATCC 19615),Streptococcus agalactiae (ATCC 27956),Escherichia coli (ATCC 25922),Proteus vulgaris (ATCC 6896),K. pneumoniae (ATCC 700603) andP. aeruginosa (ATCC 10145) reference strains, as well asStaphylococcus cohnii, Enterococcus faecalis, Staphylococcus schleiferi, Staphylococcus intermedius and Streptococcus mutans clinical isolates, were used to test the antibacterial activity of the peptidomimetics. Bacteria were aerobically cultured for 18 h at 37 °C in plates with sterilized brain heart infusion (BHI) broth (Sigma-Aldrich, USA) media mixed with bacteriological agar (Sigma-Aldrich, USA) using the streak plate method. After 18 h, BHI broth was inoculated to 0.5 on the McFarland scale and diluted to approximately 10^5 CFU/mL. To achieve a final stock concentration of 1024 μg/mL, the peptidomimetics were dissolved in sterile water, and 5–10% of absolute ethanol or dimethyl sulfoxide (DMSO) was added. The antibacterial activities were determined by using the standard broth microdilution method of the National Committee for Clinical Laboratory Standards. The process involved adding serially diluted peptidomimetics to consecutive wells of a 96-well microtiter plate (Brand, Germany) holding media with microorganisms. The inoculated plates treated with peptides were then placed in an incubator at 37 °C for 18 h. The MIC value was determined as the lowest concentration of peptidomimetic at which there was no obvious growth (equal or more than 90% of the untreated sample). […] The lowest concentration yielding growth in no more than 3 colonies, corresponding to at least a 99.9% kill rate, was taken as MBC. Each biological replicate included control wells with the addition of water, DMSO, and ethanol as respective solvent controls. All experiments were conducted with consistent adherence to growth and sterility controls and were performed at least in technical triplicate with three biological repeats.

S. schleiferi c.i. = assay: MIC/MBC broth microdilution, S. schleiferi; assay type: cell-based, Staphylococcus schleiferi
Description: as §1

P. vulgaris ATCC 6896 = assay: MIC/MBC broth microdilution, P. vulgaris; assay type: cell-based, Proteus vulgaris
Description: as §1

S. mutans c.i. = assay: MIC/MBC broth microdilution, S. mutans; assay type: cell-based, Streptococcus mutans
Description: as §1

[1] = tested on: K. pneumoniae ATCC 700603; assay: MIC/MBC broth microdilution, K. pneumoniae; assay type: cell-based
Description: as §1

fibroblasts (46BR.1N) = assay: LDH cytotoxicity test, fibroblasts; assay type: cell-based; conditions: 48 h
Description: (§2) In our study, we used two distinct cell types: immortalized human HaCaT keratinocytes (DKFZ, Heidelberg, Germany) and a human dermal fibroblast cell line (46BR.1N). […] Cultures were maintained in a humidified atmosphere with 5% CO2 at 37 °C in 25 cm^2 culture flasks with the medium replenished every 2 days. The condition of the cells was monitored using optical microscopy.
(§3) Cell death in immortalized human keratinocytes (HaCaT) and fibroblasts (46BR.1N) was measured by quantifying the lactate dehydrogenase (LDH) activity using a commercial kit (Roche, Switzerland). Cells were seeded in 96-well plates at a density of 5000 cells per well in DMEM high glucose medium supplemented with 10% FBS. After 24 h of incubation, the medium was replaced with serum-free medium containing various concentrations of peptidomimetics (50, 100, and 150 μg/mL). After 48 h, supernatants were collected for LDH analysis. Plate readings were taken spectrophotometrically using a 450 nm wavelength. Cell death measurements were normalized to an untreated control (0%), with 1% Triton X-100 detergent used as a positive control to induce maximum LDH release, indicating maximal cytotoxicity. Statistical significance was determined with a Mann–Whitney U test with a statistical significance p ≤ 0.05. Analysis was performed with Statistica software (Krakow, Poland) and graphs were prepared in GraphPad Prism (Boston, USA).

E. faecalis c.i. = assay: MIC/MBC broth microdilution, E. faecalis; assay type: cell-based, Enterococcus faecalis
Description: as §1

P. aeruginosa ATCC 10145 = assay: MIC/MBC broth microdilution, P. aeruginosa; assay type: cell-based
Description: as §1

[2] = tested on: immortalized human HaCaT keratinocytes; assay: XTT cell proliferation assay, keratinocytes; assay type: cell-based
Description: (§4) In our study, we used two distinct cell types: immortalized human HaCaT keratinocytes (DKFZ, Heidelberg, Germany) and a human dermal fibroblast cell line (46BR.1N). […] Cultures were maintained in a humidified atmosphere with 5% CO2 at 37 °C in 25 cm^2 culture flasks with the medium replenished every 2 days. The condition of the cells was monitored using optical microscopy. […] After 24 h of incubation, the medium was replaced with serum-free HG-DMEM containing appropriate concentrations of peptidomimetics. All solutions used in the experiments were prepared with double-distilled water or with the addition of ethanol under sterile conditions to ensure compatibility with the conditions of the bacteriological assay. For 72 h of incubation, half of the medium was replaced with fresh medium after 48 h, and cells were stimulated with peptides for a second time. The XTT cell proliferation assay was then performed according to the manufacturer’s instructions (Roche, Switzerland). Cells were treated with the peptides for either 48 or 72 h, followed by the addition of XTT reagent, and the plates were then incubated at 37 °C in a 5% CO2 environment for 4 h. Plate readings were taken using a standard plate reader at a wavelength of 490 nm (OD = 490 nm). […] Statistical significance was determined with a Mann–Whitney U test with statistical significance p ≤ 0.05. Analysis was performed with Statistica software, and graphs were prepared in GraphPad Prism.

S. intemrdius c.i. = assay: MIC/MBC broth microdilution, S. intermedius; assay type: cell-based, Staphylococcus intermedius
Description: as §1

[3] = tested on: human dermal fibroblast cell line (46BR.1N); assay: XTT cell proliferation assay, fibroblasts; assay type: cell-based; conditions: XTT
Description: as §4

S. aureus ATCC 43300 = assay: MIC/MBC broth microdilution, S. aureus; assay type: cell-based, Staphylococcus aureus; conditions: S. aureus
S. cohnii c.i. = assay: MIC/MBC broth microdilution, S. cohnii; assay type: cell-based, Staphylococcus cohnii
Description: as §1

E. coli ATCC 25922 = assay: MIC/MBC broth microdilution, E. coli; assay type: cell-based, Escherichia coli
Description: as §1

[4] = tested on: immortalized human keratinocytes (HaCaT); assay: LDH cytotoxicity test, keratinocytes; assay type: cell-based; conditions: 48 h
Description: as §2, §3

S. pyogenes ATCC 19615 = assay: MIC/MBC broth microdilution, S. pyogenes; assay type: cell-based, Streptococcus pyogenes; conditions: S. pyogenes
Description: as §1

In the case of Cc1ccccc1COC(=O)N[C@@H](CCCNC(=N)N)C(=O)N[C@@H](CC(C)C)C(=O)N[C@H](CNC(=O)/C=C/c1ccccc1)C(C)C [Compound A-210], the MIC (S. agalactiae ATCC 27956; H2O) is reported as 16 µg/mL (≈ 24.6 µM), the MBC (S. agalactiae ATCC 27956; water additive DMSO) is reported as 32 µg/mL (≈ 49.2 µM) and the MIC (S. agalactiae ATCC 27956; water additive DMSO) is reported as 16 µg/mL (≈ 24.6 µM). For the same compound, the MIC (S. agalactiae ATCC 27956; water additive EtOH) was 32 µg/mL (≈ 49.2 µM), the MBC (S. schleiferi c.i.; H2O) was 8 µg/mL (≈ 12.3 µM) and the MIC (S. schleiferi c.i.; H2O) was 4 µg/mL (≈ 6.16 µM). For the same compound, the MBC (S. schleiferi c.i.; water additive DMSO) was 16 µg/mL (≈ 24.6 µM), the MIC (S. schleiferi c.i.; water additive DMSO) was 8 µg/mL (≈ 12.3 µM) and the MBC (S. schleiferi c.i.; water additive EtOH) was 8 µg/mL (≈ 12.3 µM). It also gave an MIC (S. schleiferi c.i.; water additive EtOH) of 4 µg/mL (≈ 6.16 µM), an MBC (P. vulgaris ATCC 6896; H2O) of 256 µg/mL (≈ 394 µM) and an MBC (P. vulgaris ATCC 6896; water additive DMSO) of 256 µg/mL (≈ 394 µM). It also gave an MIC (S. mutans c.i.; H2O) greater than 512 µg/mL, an MIC (S. mutans c.i.; water additive DMSO) greater than 512 µg/mL and an MIC (S. mutans c.i.; water additive EtOH) greater than 512 µg/mL. It also gave an MIC ([1]; H2O) greater than 512 µg/mL, an MIC ([1]; water additive DMSO) greater than 512 µg/mL and an MIC ([1]; water additive EtOH) greater than 512 µg/mL. The “cytotoxicity (LDH), in words” value (fibroblasts (46BR.1N); 50-150 μg/mL) was “no negative effect at 50 μg/mL concentration”, the “concentration at which cytotoxic effect starts” value (fibroblasts (46BR.1N); LDH) was 100 µg/mL and the MBC (E. faecalis c.i.; H2O) was 256 µg/mL (≈ 394 µM). It also gave an MBC (E. faecalis c.i.; water additive DMSO) of 256 µg/mL (≈ 394 µM), an MBC (E. faecalis c.i.; water additive EtOH) of 256 µg/mL (≈ 394 µM) and an MIC (E. faecalis c.i.; water additive EtOH) of 32 µg/mL (≈ 49.2 µM). For the same compound, the MIC (P. aeruginosa ATCC 10145; H2O) was 512 µg/mL (≈ 788 µM), the MIC (P. aeruginosa ATCC 10145; water additive DMSO) was 512 µg/mL (≈ 788 µM) and the MBC (P. aeruginosa ATCC 10145; water additive EtOH) was 512 µg/mL (≈ 788 µM). The MIC (P. aeruginosa ATCC 10145; water additive EtOH) was 256 µg/mL (≈ 394 µM), the proliferation ([2]; 72 h) was “less than 50%” and the “proliferation relative to control at 150 μg/mL (highest tested concentration)” value ([2]; XTT, 150 μg/mL) was 50%. For the same compound, the “effect on proliferation, in words” value ([2]; XTT, 48 and 72 h, 0.01–150 μg/mL) was “negative impact”, the MBC (S. intemrdius c.i.; H2O) was 16 µg/mL (≈ 24.6 µM) and the MIC (S. intemrdius c.i.; H2O) was 16 µg/mL (≈ 24.6 µM). For the same compound, the MBC (S. intemrdius c.i.; water additive DMSO) was 16 µg/mL (≈ 24.6 µM), the MIC (S. intemrdius c.i.; water additive DMSO) was 16 µg/mL (≈ 24.6 µM) and the MBC (S. intemrdius c.i.; water additive EtOH) was 16 µg/mL (≈ 24.6 µM). For the same compound, the MIC (S. intemrdius c.i.; water additive EtOH) was 16 µg/mL (≈ 24.6 µM), the “proliferation relative to control at 150 μg/mL (highest tested concentration)” value ([3]; 150 μg/mL) was 50% and the “effect on proliferation, in words” value ([3]; 48 and 72 h, 0.01–150 μg/mL) was “negative impact”. It also gave an MIC (S. aureus ATCC 43300; H2O) of 32 µg/mL (≈ 49.2 µM), an MIC (S. aureus ATCC 43300; water additive DMSO) of 32 µg/mL (≈ 49.2 µM) and an MBC (S. aureus ATCC 43300; water additive EtOH) of 32 µg/mL (≈ 49.2 µM). The MIC (S. aureus ATCC 43300; water additive EtOH) was 16 µg/mL (≈ 24.6 µM), the MIC (S. cohnii c.i.; water additive DMSO) was 32 µg/mL (≈ 49.2 µM) and the MIC (S. cohnii c.i.; water additive EtOH) was 32 µg/mL (≈ 49.2 µM). It also gave an MIC (E. coli ATCC 25922; H2O) greater than 512 µg/mL, an MIC (E. coli ATCC 25922; water additive DMSO) greater than 512 µg/mL and an MIC (E. coli ATCC 25922; water additive EtOH) greater than 512 µg/mL. The “cytotoxicity (LDH), in words” value ([4]; 50-150 μg/mL) was “no negative effect at 50 μg/mL concentration”, the “concentration at which cytotoxic effect starts” value ([4]; LDH) was 100 µg/mL and the MIC (S. pyogenes ATCC 19615; H2O) was 32 µg/mL (≈ 49.2 µM). The MIC (S. pyogenes ATCC 19615; water additive DMSO) was 32 µg/mL (≈ 49.2 µM) and the MIC (S. pyogenes ATCC 19615; water additive EtOH) was 32 µg/mL (≈ 49.2 µM).
